# Results from paper PMC3987113 (Toxicology and applied pharmacology, 2009).
# Entries after “also recorded” stand apart in the source; their conditions may differ.
# Legend:
# [1] = liver, PCB126; ref Kopec et al. 2008; cited from earlier work
# [2] = 300 μg/kg PCB126; ref Kopec et al. 2008; cited from earlier work
# [3] = tested on: liver of immature, ovariectomized C57BL/6 mice; details: ref Boverhof et al. 2005; Kopec et al. 2008; cited from earlier work
# hepatic gene expression [4] = test: QRT-PCR verification of hepatic gene expression; assay type: in vivo, C57BL/6 mice
# [5] = tested on: liver of immature, ovariectomized C57BL/6 mice; test: Liver histopathology; assay type: in vivo; details: 300 mg/kg PCB153 or 30 μg/kg TCDD
# hepatic gene expression [6] = test: Hepatic gene expression, Agilent 4 x 44K microarrays; assay type: in vivo, C57BL/6 mice; details: hepatic mRNA, 30 μg/kg TCDD; maximum fold change, |fold change|≥1.5, P1(t)≥0.90
# [7] = Hepatic tissue level quantification by HRGC/HRMS; assay type: in vivo, C57BL/6 mice; details: liver, 168 h vs 24 h; single gavage 300 mg/kg PCB153 or 30 μg/kg TCDD
# [8] = Body and liver weights, time course study; assay type: in vivo, C57BL/6 mice; details: 300 mg/kg PCB153 or 30 μg/kg TCDD, mean ± SD, n=5; for Body weight gain: terminal body weight divided by body weight prior to dosing
# hepatic gene expression [9] = details: hepatic mRNA, cDNA microarray, 30 μg/kg TCDD; maximum fold change, |fold change|≥1.5, P1(t)≥0.90; ref Boverhof et al. 2005; cited from earlier work
compound,measurement,setting,value
"Clc1ccc(-c2cc(Cl)c(Cl)c(Cl)c2)cc1Cl [PCB126, 3,3′,4,4′,5-pentachlorobiphenyl]",Hepatic level over time,[1],"continued to increase throughout the study, reaching the highest concentration at 7 days"
same,Effect on relative liver weight (RLW),[2],also increased RLW at later time points
same,Hepatocyte cell size and number,[3],not affected
"Clc1cc2c(cc1Cl)Oc1cc(Cl)c(Cl)cc1O2 [TCDD, 2,3,7,8-tetrachlorodibenzo-p-dioxin, reference compound]",Regulation of PCB153-responsive (CAR/PXR) genes by TCDD,"hepatic gene expression [4]; 30 μg/kg TCDD, Table 3 and Fig. 5C",reciprocally modest; also recorded: minimal differential expression
same,Cyp1a2 induction,"hepatic gene expression [4]; hepatic mRNA, time course, 30 μg/kg TCDD (Fig. 6A) or 300 mg/kg PCB153 (Fig. 6B)",~ 30 fold
same,Elovl5 fold change,"hepatic gene expression [4]; hepatic mRNA, time course, 300 mg/kg PCB153 or 30 μg/kg TCDD (Fig. 6A-B)",2.2 fold
same,"Hepatic lipid accumulation, Oil Red O staining",[5],significant lipid accumulation
same,Necrosis and immune (mixed) cell infiltration in liver,[5],"more dramatic vacuolization, and necrosis, as well as mixed cell infiltration"
same,Hepatic inflammation,[5]; time course,moderate multifocal inflammation; also recorded: instances of multifocal inflammation
same,"Hepatocellular vacuolization, time course study",[5]; Fig. 2 at 168 h,more severe; also recorded: slight to moderate vacuolization
same,"TCDD fold change, Abcc3",hepatic gene expression [6],1.7 fold
same,"TCDD fold change, Acsl3",hepatic gene expression [6],−2.3 fold
same,"TCDD fold change, Agpat4",hepatic gene expression [6],no change
same,"TCDD fold change, Akr1b7",hepatic gene expression [6],no change
same,"TCDD fold change, Akr1c20",hepatic gene expression [6],−1.7 fold
same,"TCDD fold change, Aox1",hepatic gene expression [6],2.2 fold
same,"TCDD fold change, Cdca2",hepatic gene expression [6],no change
same,"TCDD fold change, Cds2",hepatic gene expression [6],no change
same,"TCDD fold change, Ces2",hepatic gene expression [6],2.5 fold
same,"TCDD fold change, Cyp2b9",hepatic gene expression [6],no change
same,"TCDD fold change, Cyp2b10",hepatic gene expression [6],2.3 fold
same,"TCDD fold change, Cyp2b23",hepatic gene expression [6],no change
same,"TCDD fold change, Cyp2c54",hepatic gene expression [6],no change
same,"TCDD fold change, Cyp2c55",hepatic gene expression [6],1.8 fold
same,"TCDD fold change, Cyp3a25",hepatic gene expression [6],no change
same,"TCDD fold change, Dhfr",hepatic gene expression [6],no change
same,"TCDD fold change, Elovl6",hepatic gene expression [6],−4.3 fold
same,"TCDD fold change, Fasn",hepatic gene expression [6],−4.3 fold
same,"TCDD fold change, Fmo5",hepatic gene expression [6],no change
same,"TCDD fold change, Gadd45a",hepatic gene expression [6],−3.6 fold
same,"TCDD fold change, Gadd45b",hepatic gene expression [6],3.2 fold
same,"TCDD fold change, Gpx2",hepatic gene expression [6],no change
same,"TCDD fold change, Gsta2",hepatic gene expression [6],5.9 fold
same,"TCDD fold change, Gstm4",hepatic gene expression [6],2.4 fold
same,"TCDD fold change, Gstt3",hepatic gene expression [6],1.5 fold
same,"TCDD fold change, Hmgcr",hepatic gene expression [6],−2.6 fold
same,"TCDD fold change, Hsd17b2",hepatic gene expression [6],2.2 fold
same,"TCDD fold change, Insig2",hepatic gene expression [6],−1.7 fold
same,"TCDD fold change, Mad1l1",hepatic gene expression [6],no change
same,"TCDD fold change, Myc",hepatic gene expression [6],3.0 fold
same,"TCDD fold change, Nol3",hepatic gene expression [6],no change
same,"TCDD fold change, Pla2g12a",hepatic gene expression [6],3.1 fold
same,"TCDD fold change, Slc1a4",hepatic gene expression [6],no change
same,"TCDD fold change, Slc23a1",hepatic gene expression [6],−1.7 fold
same,"TCDD fold change, Smpd3",hepatic gene expression [6],−2.6 fold
same,"TCDD fold change, Srebf1",hepatic gene expression [6],−2.3 fold
same,"TCDD fold change, Srebf2",hepatic gene expression [6],−1.7 fold
same,"TCDD fold change, Ugdh",hepatic gene expression [6],2.7 fold
same,"TCDD fold change, Zwint",hepatic gene expression [6],no change
same,Decrease of hepatic level after 7 days,[7],~ 1.4 fold
same,Liver weight,[8]; 4 h,0.733 ± 0.044 g
same,Relative liver weight,[8]; 4 h,0.054 ± 0.003
same,Body weight gain,[8]; 4 h,1.0 ± 0.0
same,Terminal body weight,[8]; 4 h after single gavage,13.6 ± 0.8 g
same,Liver weight,[8]; 12 h,0.724 ± 0.025 g
same,Relative liver weight,[8]; 12 h,0.056 ± 0.001
same,Body weight gain,[8]; 12 h,1.1 ± 0.0
same,Terminal body weight,[8]; 12 h after single gavage,12.8 ± 0.7 g
same,Liver weight,[8]; 24 h,0.973 ± 0.088 g
same,Relative liver weight,[8]; 24 h,0.068 ± 0.003
same,Body weight gain,[8]; 24 h,1.1 ± 0.0
same,Terminal body weight,[8]; 24 h after single gavage,14.2 ± 0.9 g
same,Liver weight,[8]; 72 h,1.068 ± 0.060 g
same,Relative liver weight,[8]; 72 h,0.071 ± 0.003
same,Body weight gain,[8]; 72 h,1.2 ± 0.1
same,Terminal body weight,[8]; 72 h after single gavage,15.1 ± 0.7 g
same,Liver weight,[8]; 168 h,1.263 ± 0.080 g
same,Relative liver weight,[8]; 168 h,0.072 ± 0.003
same,Body weight gain,[8]; 168 h,1.3 ± 0.0
same,Terminal body weight,[8]; 168 h after single gavage,17.5 ± 0.4 g
same,Hepatocyte cell size and number,[3],not affected
same,"TCDD time course Boverhof et al., Abcc3 fold change",hepatic gene expression [9],1.5 fold
same,"TCDD time course Boverhof et al., Agpat4 fold change",hepatic gene expression [9],no change
same,"TCDD time course Boverhof et al., Akr1b7 fold change",hepatic gene expression [9],no change
same,"TCDD time course Boverhof et al., Cds2 fold change",hepatic gene expression [9],no change
same,"TCDD time course Boverhof et al., Ces2 fold change",hepatic gene expression [9],1.6 fold
same,"TCDD time course Boverhof et al., Cyp2b10 fold change",hepatic gene expression [9],no change
same,"TCDD time course Boverhof et al., Dhfr fold change",hepatic gene expression [9],−1.5 fold
same,"TCDD time course Boverhof et al., Elovl6 fold change",hepatic gene expression [9],−1.8 fold
same,"TCDD time course Boverhof et al., Fasn fold change",hepatic gene expression [9],−1.9 fold
same,"TCDD time course Boverhof et al., Fmo5 fold change",hepatic gene expression [9],no change
same,"TCDD time course Boverhof et al., Gadd45b fold change",hepatic gene expression [9],4.6 fold
same,"TCDD time course Boverhof et al., Gpx2 fold change",hepatic gene expression [9],no change
same,"TCDD time course Boverhof et al., Gsta2 fold change",hepatic gene expression [9],7.2 fold
same,"TCDD time course Boverhof et al., Gstt3 fold change",hepatic gene expression [9],no change
same,"TCDD time course Boverhof et al., Insig2 fold change",hepatic gene expression [9],no change
same,"TCDD time course Boverhof et al., Myc fold change",hepatic gene expression [9],3.7 fold
same,"TCDD time course Boverhof et al., Nol3 fold change",hepatic gene expression [9],no change
same,"TCDD time course Boverhof et al., Slc1a4 fold change",hepatic gene expression [9],no change
same,"TCDD time course Boverhof et al., Srebf1 fold change",hepatic gene expression [9],−2.1 fold
same,"TCDD time course Boverhof et al., Srebf2 fold change",hepatic gene expression [9],1.5 fold
same,"TCDD time course Boverhof et al., Ugdh fold change",hepatic gene expression [9],3.1 fold
